System: DIO mice
Experiment: Insulin tolerance test (ITT) in DIO mice
Assay type: in vivo, mouse
Conditions: day 27, insulin 0.3 unit/kg i.p., FIG. 1
Method: The blood was collected (approximately 70 μL) from the same site by using a heparin-treated capillary (Hematokrit Kapilaren, 75 μL, […] LABORGERATE) and the collected blood was centrifuged (12,000 rpm, 7 min, 4° C.) in a hematocrit centrifuge (KUBOTA3100, Kubota Corp.) and the plasma was stored, as it is frozen in an Eppendorf tube, until it is used for measurement of triglyceride. The triglyceride measurement was carried out by using Triglyceride E-Test Wako (Wako Pure Chemical Industries). Four μL of the sample was added to 250 μL of the coloring liquid, after reaction at 37° C. for 1 hour, and the absorbance (595 nm) of the mixture was determined by using a microplate reader (Bio-Rad, Model 680). Separately, insulin tolerance test (ITT) was performed on day 27.
The mouse was left non-feeded in a fasting cage after drug administration on day 26. In the morning of the day of ITT (day 27), the fasting blood sugar was determined by a method identical with that used for blood sugar measurement on day 26. The blood sugar was measured once again in the afternoon of the same day; an insulin solution was administered intraperitoneally (0.3 unit/5 mL/kg) immediately after then; and the blood sugar was measured 30, 60, 120 and 180 minutes after insulin administration since then. […]
The insulin level was measured by using an insulin measurement kit (Lebis Insulin Mouse U, Shibayagi). […]

## COc1cc(CN[C@@H](C)[C@H](O)c2ccc(O)c(NS(C)(=O)=O)c2)cc(OC)c1 [Example 1, N-(5-((1R,2S)-2-(3,5-Dimethoxybenzylamino)-1-hydroxypropyl)-2-hydroxyphenyl)methanesulfonamide]
  blood sugar after insulin administration (ITT) versus vehicle group: declined statistically significantly
